Patent USRE47589E1, “Phosphoramidate compounds and methods of use” (NuCana plc, priority 2003, dated 2019)
Where two headings read alike, the source gives them in different places.

Columns and labels:
Assay type in all cases: cell-based
[1] = tested on: human prostate cancer cell line (PC-3); assay: MTT cytotoxicity assay, prostate cancer cell line; conditions: for EC50: read-out: EC50/μM Prostate PC-3
Procedure: (§1) The compounds include those whose preparations are described above and compounds made by preparative methods corresponding to the methods described above.
(§2) Compounds were diluted over a range of concentrations and added to cells over 1 to 3 days. The cytotoxity was determined using a MTT assay at the end of each experiment.

[2] = tested on: human colon cancer cell line (HT115); assay: MTT cytotoxicity assay, colon cancer cell line
Procedure: as §1, §2

[3] = tested on: human breast cancer cell line (MDA MB 231); assay: MTT cytotoxicity assay, breast cancer cell line; conditions: for EC50: Homo sapiens, MDA-MB-231, read-out: EC50/μM Breast MDA MB231
Procedure: as §1, §2

[4] = Homo sapiens, HT115, read-out: EC50/μM Colon HT115, MTT assay, compounds added to cells over 1 to 3 days
[5] = MTT assay, compounds added to cells over 1 to 3 days
[6] = MTT assay, compounds added to cells over 1 to 3 days, read-out: EC50/μM Colon HT115

Molecule	EC50 ([1]; Homo sapiens) [µM]	EC50 [2, 4] [µM]	EC50 [3] [µM]	further results
O=C(OCc1ccccc1)C1(NP(=O)(OC[C@H]2O[C@@H](n3cc(/C=C/Br)c(=O)[nH]c3=O)CC2O)Oc2ccc(Cl)cc2)CCCC1 (stereo partly drawn) [Example 34, (E)-5-(2-Bromovinyl)-2′-deoxyuridine-5′-[para-chlorophenyl-(benzoxy-α,α-cycloleucinyl)]-phosphate]	6.3	8.9	3.9	
CC(C)C[C@H](NP(=O)(OC[C@H]1O[C@@H](n2cc(/C=C/Br)c(=O)[nH]c2=O)CC1O)Oc1ccc([N+](=O)[O-])cc1)C(=O)OCc1ccccc1 (stereo partly drawn) [Example 38, (E)-5-(2-Bromovinyl)-2′-deoxyuridine-5′-(para-nitrophenyl-(benzoxy-L-leucinyl)]-phosphate]	7.2	10.7	6.3	
O=C(OCc1ccccc1)C1(NP(=O)(OC[C@H]2O[C@@H](n3cc(/C=C/Br)c(=O)[nH]c3=O)CC2O)Oc2ccc(C(F)(F)F)cc2)CCCC1 (stereo partly drawn) [Example 30, (E)-5-(2-Bromovinyl)-2′-deoxyuridine-5′-[para-trifluorophenyl-(benzoxy-α,α-cycloleucinyl)]-phosphate]		6.4	6.9	
COC(=O)C1(NP(=O)(OC[C@H]2O[C@@H](n3cc(/C=C/Br)c(=O)[nH]c3=O)CC2O)Oc2ccc(C(F)(F)F)cc2)CCCC1 (stereo partly drawn) [Example 28, (E)-5-(2-Bromovinyl)-2′-deoxyuridine-5′-[para-trifluorophenyl-(methoxy-α,α-cycloleucinyl)]-phosphate]		21.2	28.8	
CC(C)C[C@H](NP(=O)(OC[C@H]1O[C@@H](n2cc(/C=C/Br)c(=O)[nH]c2=O)CC1O)Oc1ccccc1)C(=O)OCc1ccccc1 (stereo partly drawn) [Example 37, (E)-5-(2-Bromovinyl)-2′-deoxyuridine-5′-[phenyl-(benzoxy-L-leucinyl)]-phosphate]	7.16	7	2.8	
CCOC(=O)C(NP(=O)(OCC1OC(n2cc(C=CBr)c(=O)[nH]c2=O)CC1O)Oc1ccccc1)C(C)CC (stereo not shown) [Example 73]				EC50 [1, 5]: 30.6 µM
O=C(OCc1ccccc1)C(NP(=O)(OCC1OC(n2cc(C=CBr)c(=O)[nH]c2=O)CC1O)Oc1ccc(C(F)(F)F)cc1)c1ccccc1 (stereo not shown) [Example 91]				EC50 [1, 5]: 0.7 µM
CC(C)(NP(=O)(OC[C@H]1O[C@@H](n2ccc(N)nc2=O)C(F)(F)C1O)Oc1ccc(Cl)cc1)C(=O)OCc1ccccc1 (stereo partly drawn) [Example 41, Gemcitabine-[para-chlorophenyl-(benzoxy-α,α-dimethylglycinyl)]-phosphate]	68.8	317	3.1	
O=C(OCc1ccccc1)C1(NP(=O)(OC[C@H]2O[C@@H](n3cc(/C=C/Br)c(=O)[nH]c3=O)CC2O)Oc2ccc([N+](=O)[O-])cc2)CCCC1 (stereo partly drawn) [Example 21, (E)-5-(2-Bromovinyl)-2′-deoxyuridine-5′-[para-nitrophenyl-(benzoxy-α,α-cycloleucinyl)]-phosphate]	2.2	17.2	8.4	
propenate-2′-deoxyuridine [Example 67, reference compound]				EC50 [2, 6]: 93.7 µM
CC(C)C(NP(=O)(OCC1OC(n2cc(C=CBr)c(=O)[nH]c2=O)CC1O)Oc1ccc(Cl)cc1)C(=O)OCc1ccccc1 (stereo not shown) [Example 86]				EC50 [1, 5]: 0.9 µM
CC(C)C(NP(=O)(OCC1OC(n2cc(C=CBr)c(=O)[nH]c2=O)CC1O)Oc1ccccc1)C(=O)OCc1ccccc1 (stereo not shown) [Example 85]				EC50 [1, 5]: 31.2 µM
CCOC(=O)C(C)(C)NP(=O)(OC[C@H]1O[C@@H](n2cc(/C=C/Br)c(=O)[nH]c2=O)CC1O)Oc1ccc(Cl)cc1 (stereo partly drawn) [Example 43, (E)-5-(2-bromovinyl)-2′-deoxyuridine-5′-[4-chlorophenyl-(ethoxy-α,α-dimethylglycinyl)]-phosphate]	1.15	174	5.9	
C[C@H](NP(=O)(OC[C@H]1O[C@@H](n2cc(/C=C/Br)c(=O)[nH]c2=O)CC1O)Oc1ccc(Cl)cc1)C(=O)OCc1ccccc1 (stereo partly drawn) [Example 12, (E)-5-(2-bromovinyl)-2′-deoxyuridine-5′-[4-chlorophenyl-(benzoxy-L-alaninyl)]-phosphate]	2.4	3.4	6.2	
CC(C)C[C@H](NP(=O)(OC[C@H]1O[C@@H](n2cc(/C=C/Br)c(=O)[nH]c2=O)CC1O)Oc1ccc(Cl)cc1)C(=O)OCc1ccccc1 (stereo partly drawn) [Example 39, (E)-5-(2-Bromovinyl)-2′-deoxyuridine-5′-[para-chlorophenyl-(benzoxy-L-leucinyl)]-phosphate]	193	288	4.3	
CC(C)(NP(=O)(OC[C@H]1O[C@@H](n2cc(/C=C/Br)c(=O)[nH]c2=O)CC1O)Oc1ccc(Cl)cc1)C(=O)OCc1ccccc1 (stereo partly drawn) [Example 44, (E)-5-(2-bromovinyl)-2′-deoxyuridine-5′-[4-chlorophenyl-(benzoxy-α,α-dimethylglycinyl)]-phosphate]	9.12	4.5	2.3	

Molecule	EC50 ([1]; Homo sapiens) [µM]	EC50 [2, 4] [µM]	EC50 [3] [µM]	further results
O=c1[nH]c(=O)n([C@H]2CC(O)[C@@H](CO)O2)cc1/C=C/Br (stereo in doubt) [Example A, 5-(2-Bromovinyl)-2′-deoxyuridine, reference compound]	120	78.7	125	
COC(=O)C1(NP(=O)(OC[C@H]2O[C@@H](n3cc(/C=C/Br)c(=O)[nH]c3=O)CC2O)Oc2ccccc2)CCCC1 (stereo partly drawn) [Example 16, (E)-5-(2-Bromovinyl)-2′-deoxyuridine-5′-[phenyl-(methoxy-α,α-cycloleucinyl)]-phosphate]	16	77	79	
O=C(OCc1ccccc1)C1(NP(=O)(OC[C@H]2O[C@@H](n3cc(/C=C/Br)c(=O)[nH]c3=O)CC2O)Oc2ccc(F)cc2)CCCC1 (stereo partly drawn) [Example 24, (E)-5-(2-Bromovinyl)-2′-deoxyuridine-5′-[para-fluorophenyl-(benzoxy-α,α-cycloleucinyl)]-phosphate]	3.7	17	9.4	
CC(C)(NP(=O)(OCC1OC(n2cc(C=CBr)c(=O)[nH]c2=O)CC1O)Oc1ccc(F)cc1)C(=O)OCc1ccccc1 (stereo not shown) [Example 84]				EC50 [1, 5]: 4.5 µM
COC(=O)[C@H](C)NP(=O)(OC[C@H]1O[C@@H](n2cc(/C=C/Br)c(=O)[nH]c2=O)CC1O)Oc1ccccc1 (stereo partly drawn) [Example 1, (E)-5-(2-Bromovinyl)-2′-deoxyuridine-5′-[phenyl-(methoxy-L-alaninyl)]-phosphate, reference compound]	155	244	79	EC50 ([2]; read-out: EC50/μM Colon HT115, MTT assay, compounds added to cells over 1 to 3 days): 244 µM
C[C@H](NP(=O)(OC[C@H]1O[C@@H](n2cc(/C=C/Br)c(=O)[nH]c2=O)CC1O)Oc1ccc([N+](=O)[O-])cc1)C(=O)OCc1ccccc1 (stereo partly drawn) [Example 8, (E)-5-(2-Bromovinyl)-2′-deoxyuridine-5′-[para-nitrophenyl-(benzoxy-L-alaninyl)]-phosphate]		9	28	
CC(C)[C@H](NP(=O)(OC[C@H]1O[C@@H](n2cc(/C=C/Br)c(=O)[nH]c2=O)C[C@@H]1O)Oc1ccc(C(F)(F)F)cc1)C(=O)OCc1ccccc1 (stereo partly shown) [Example 78]				EC50 [1, 5]: 1.6 µM
CCOC(=O)[C@H](C)NP(=O)(OC[C@H]1O[C@@H](n2cc(/C=C/Br)c(=O)[nH]c2=O)CC1O)Oc1ccc(Cl)cc1 (stereo partly drawn) [Example 11, (E)-5-(2-bromovinyl)-2′-deoxyuridine-5′-[4-chlorophenyl-(ethoxy-L-alaninyl)]-phosphate]	3.4	14.9	28.7	
COC(=O)C(C)(C)NP(=O)(OC[C@H]1O[C@@H](n2cc(/C=C/Br)c(=O)[nH]c2=O)CC1O)Oc1ccc([N+](=O)[O-])cc1 (stereo partly drawn) [Example 45, (E)-5-(2-bromovinyl)-2′-deoxyuridine-5′-[4-nitrophenyl-(methoxy-α,α-dimethylglycinyl)]-phosphate]	223	24.7	9.4	
CC(C)(NP(=O)(OCC1OC(n2cc(/C=C/Br)c(=O)[nH]c2=O)CC1O)Oc1ccc(C(F)(F)F)cc1)C(=O)OCc1ccccc1 (stereo not drawn) [Example 48, (E)-5-(2-bromovinyl)-2′-deoxyuridine-5′-[para-(trifluoromethyl)phenyl-(benzoxy-α,α-dimethylglycinyl)]-phosphate]	0.61	7	1.3	times more potent than (7), prostate cancer cell line PC-3 ([1]; ratio versus methyl ester (7)): 254 fold; times more potent than (7), colon cancer cell line HT115 ([2]; ratio of 50% growth inhibition concentrations versus methyl ester (7)): 35 fold; fold more active than (7), breast cancer ([3]; ratio versus methyl ester (7)): 60 fold
CCOC(=O)[C@H](C)NP(=O)(OC[C@H]1O[C@@H](n2cc(/C=C/Br)c(=O)[nH]c2=O)CC1O)Oc1ccc(C(F)(F)F)cc1 (stereo partly shown) [Example 25]		4.6	33.8	
COC(=O)C(C)(C)NP(=O)(OC[C@H]1O[C@@H](n2cc(/C=C/Br)c(=O)[nH]c2=O)CC1O)Oc1ccc(Cl)cc1 (stereo partly drawn) [Example 42, (E)-5-(2-bromovinyl)-2′-deoxyuridine-5′-[4-chlorophenyl-(methoxy-α,α-dimethylglycinyl)]-phosphate]	442	183	8.7	
CCOC(=O)C(C)(C)NP(=O)(OCC1OC(n2cc(C=CBr)c(=O)[nH]c2=O)CC1O)Oc1ccc(C(F)(F)F)cc1 (stereo not shown) [Example 59]				EC50 [2, 6]: 24.7 µM
O=C(CNP(=O)(OCC1OC(n2cc(C=CBr)c(=O)[nH]c2=O)CC1O)Oc1ccc(Cl)cc1)OCc1ccccc1 (stereo not shown) [Example 77]				EC50 [1, 5]: 150 µM
O=C(OCc1ccccc1)C(Cc1ccccc1)NP(=O)(OCC1OC(n2cc(C=CBr)c(=O)[nH]c2=O)CC1O)Oc1ccccc1 (stereo not shown) [Example 54]				EC50 [2, 6]: 5.1 µM
